Earlier results on two substances are cited in patent publication US20100112033A1, “STENTS COATED WITH NO- AND S-NITROSOTHIOL-ELUTING HYDROPHLIC POLYMERIC BLENDS” (Universidade Estadual de Campinas UNICAMP, priority 2005, published 2010).

One data set concerns platelet aggregation. Conditions: compared to non-nitrosated polymer.
The next data set has as its system neointimal formation. To be noted: compared to non-nitrosated polymer.
The next data set concerns stenosis. Conditions: applied to damaged vascular site, rabbit coronary artery.
A further data set has as its system neointimal hyperplasia. To be noted: patients, six months after stenting.

For the substance “bovine S-nitrosated albumin: nitrosated protein, a protein adduct of nitric oxide”, in the data set on platelet aggregation, the “reduction of platelet aggregation” value is recorded as 50-70%. Besides, in the data set with neointimal formation, the “reduction of neointimal formation” value was 40%. In addition, in the data set with stenosis, the effect on stenosis result was “proved to reduce stenosis”.

As for sirulimus, the neointimal hyperplasia result with neointimal hyperplasia is on record as “minimal neointimal hyperplasia”.
